Tests used:
[1] = target: T1, full-length beta-Catenin (Uniprot ID P35222) (Homo sapiens, UniProt P35222); assay: Fluorescence polarization IC50 (beta-catenin / 5FAM-TCF4 10-53 competition); assay type: binding; conditions: fluorescence polarization; read-out: beta-Catenin FP IC50
T1 construct: 10 nM full-length beta-Catenin (Uniprot ID P35222)
T1 sequence (P35222 1-781): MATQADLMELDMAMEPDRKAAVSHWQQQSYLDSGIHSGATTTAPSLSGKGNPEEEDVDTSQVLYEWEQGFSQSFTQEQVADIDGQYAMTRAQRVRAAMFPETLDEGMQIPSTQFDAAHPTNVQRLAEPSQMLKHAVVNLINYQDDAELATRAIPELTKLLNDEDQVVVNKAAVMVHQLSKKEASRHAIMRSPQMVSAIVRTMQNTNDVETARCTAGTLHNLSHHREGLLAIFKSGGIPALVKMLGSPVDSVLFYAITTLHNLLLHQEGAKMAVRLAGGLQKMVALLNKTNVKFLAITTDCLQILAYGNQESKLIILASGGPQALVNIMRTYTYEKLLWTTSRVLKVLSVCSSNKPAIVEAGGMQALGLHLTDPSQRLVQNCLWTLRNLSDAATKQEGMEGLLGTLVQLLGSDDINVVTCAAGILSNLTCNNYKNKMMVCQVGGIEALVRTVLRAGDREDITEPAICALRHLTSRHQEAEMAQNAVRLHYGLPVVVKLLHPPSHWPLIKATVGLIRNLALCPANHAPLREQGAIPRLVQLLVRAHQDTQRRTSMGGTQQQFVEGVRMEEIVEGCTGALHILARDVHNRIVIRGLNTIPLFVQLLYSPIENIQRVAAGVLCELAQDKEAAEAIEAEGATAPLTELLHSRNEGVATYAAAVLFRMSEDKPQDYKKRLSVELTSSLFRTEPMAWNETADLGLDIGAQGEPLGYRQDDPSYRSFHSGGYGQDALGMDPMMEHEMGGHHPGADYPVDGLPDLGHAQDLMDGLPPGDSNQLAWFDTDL

[2] = target: T2, beta-catenin/TCF4 engagement (Homo sapiens, UniProt P35222); assay: Nano-BRET target engagement assay (B-cat-Halo & TCF4-Luc in HEK293 cells); assay type: cell-based; conditions: absolute IC50; read-out: NanoBRET Abs IC50
T2 construct: expressed in transfected cells; host or cells: HEK293
T2 sequence (P35222 1-781): T1 sequence (P35222 1-781)

Row | SMILES | IC50 [1] [µM] | IC50 [2] [µM]
1 | CC(=O)N1CCC[C@]12CC=CCCCC1(CCCC=CCCCOC(=O)N3CC[C@@](C(=O)N[C@@H](Cc4ccccc4C(F)(F)F)C(=O)N[C@@H](Cc4c(C(F)(F)F)[nH]c5ccccc45)C(=O)N[C@@H](CCC(N)=O)C(N)=O)(C3)NC(=O)[C@H](CC(C)C)NC(=O)[C@H](Cc3ccccc3)NC(=O)[C@H](C)NC(=O)[C@H](C)NC(=O)[C@H](Cc3cccc(C(=O)O)c3)NC(=O)[C@H](CC(=O)O)NC1=O)NC(=O)[C@H](CC(C)(C)C)NC(=O)[C@H](CC(=O)O)NC2=O (stereo partly drawn) [I-2484, Ac-PL3-Asp-Npg-B5-Asp-3COOHF-Ala-Ala-Phe-Leu-PyrS2-2F3MeF-2F3MeW-Gln-NH2] | 6.29 | > 20
2 | CC(=O)N1CCC[C@]12CC=CCCCC1(CCCC=CCCCOC(=O)N3CC[C@@](C(=O)N[C@@H](Cc4ccccc4C(F)(F)F)C(=O)N[C@@H](Cc4c(C(F)(F)F)[nH]c5ccccc45)C(=O)N[C@@H](C)C(N)=O)(C3)NC(=O)[C@H](CC(C)C)NC(=O)[C@H](Cc3ccccc3)NC(=O)[C@H](C)NC(=O)[C@H](CCC(N)=O)NC(=O)[C@H](Cc3cccc(C(=O)O)c3)NC(=O)[C@H](CC(=O)O)NC1=O)NC(=O)[C@H](CC(C)(C)C)NC(=O)[C@H](CC(=O)O)NC2=O (stereo partly drawn) [I-2485, Ac-PL3-Asp-Npg-B5-Asp-3COOHF-Gln-Ala-Phe-Leu-PyrS2-2F3MeF-2F3MeW-Ala-NH2] | 4.75 | > 20
3 | CC(=O)N1CCC[C@]12CC=CCCCC1(CCCC=CCCCOC(=O)N3CC[C@@](C(=O)N[C@@H](Cc4ccccc4C(F)(F)F)C(=O)N[C@@H](Cc4csc5c(Cl)cccc45)C(=O)N[C@@H](CCC(N)=O)C(N)=O)(C3)NC(=O)[C@H](CC(C)C)NC(=O)[C@H](Cc3ccccc3)NC(=O)[C@H](C)NC(=O)[C@H](C)NC(=O)[C@H](Cc3cccc(C(=O)O)c3)NC(=O)[C@H](CC(=O)O)NC1=O)NC(=O)[C@H](CC(C)(C)C)NC(=O)[C@H](CC(=O)O)NC2=O (stereo partly drawn) [I-2486, Ac-PL3-Asp-Npg-B5-Asp-3COOHF-Ala-Ala-Phe-Leu-PyrS2-2F3MeF-7C1BztA-Gln-NH2] | 0.034 | 3.7
4 | CC(=O)N1CCC[C@]12CC=CCCCC1(CCCC=CCCCOC(=O)N3CC[C@@](C(=O)N[C@@H](Cc4ccccc4C(F)(F)F)C(=O)N[C@@H](Cc4csc5cccc(Cl)c45)C(=O)N[C@@H](CCC(N)=O)C(N)=O)(C3)NC(=O)[C@H](CC(C)C)NC(=O)[C@H](Cc3ccccc3)NC(=O)[C@H](C)NC(=O)[C@H](C)NC(=O)[C@H](Cc3cccc(C(=O)O)c3)NC(=O)[C@H](CC(=O)O)NC1=O)NC(=O)[C@H](CC(C)(C)C)NC(=O)[C@H](CC(=O)O)NC2=O (stereo partly drawn) [I-2490, Ac-PL3-Asp-Npg-B5-Asp-3COOHF-Ala-Ala-Phe-Leu-PyrS2-2F3MeF-4C1BztA-Gln-NH2] | 0.039 | 6.4
5 | CC(=O)N1CCC[C@]12CC=CCCCC1(CCCC=CCCCOC(=O)N3CC[C@@](C(=O)N[C@@H](Cc4ccsc4)C(=O)N[C@@H](Cc4csc5ccccc45)C(=O)N[C@@H](CCC(N)=O)C(N)=O)(C3)NC(=O)[C@H](CC(N)=O)NC(=O)[C@H](Cc3ccccc3)NC(=O)[C@H](C)NC(=O)C3(CCCC3)NC(=O)[C@H]([C@@H](C)O)NC(=O)[C@H](CC(N)=O)NC1=O)NC(=O)[C@H](CC(C)(C)C)NC(=O)[C@H](CC(=O)O)NC2=O (stereo partly drawn) [I-2493, Ac-PL3-Asp-Npg-B5-Asn-Thr-CyLeu-Ala-Phe-Asn-PyrS2-3Thi-BztA-Gln-NH2] | 0.267 | > 20
6 | CC(=O)N1CCC[C@]12CC=CCCCC1(CCCC=CCCCOC(=O)N3CC[C@@](C(=O)N[C@@H](Cc4ccsc4)C(=O)N[C@@H](Cc4csc5ccccc45)C(=O)N[C@@H](CC(=O)N(C)C)C(N)=O)(C3)NC(=O)[C@H](CC(N)=O)NC(=O)[C@H](Cc3ccccc3)NC(=O)[C@H](C)NC(=O)C(C)(C)NC(=O)[C@H]([C@@H](C)O)NC(=O)[C@H](CC(N)=O)NC1=O)NC(=O)[C@H](CC(C)(C)C)NC(=O)[C@H](CC(=O)O)NC2=O (stereo partly drawn) [I-2494, Ac-PL3-Asp-Npg-B5-Asn-Thr-Aib-Ala-Phe-Asn-PyrS2-3Thi-BztA-Me2Asn-NH2] | 0.102 | > 20
7 | CNC(=O)C[C@H](NC(=O)[C@H](Cc1csc2ccccc12)NC(=O)[C@H](Cc1ccsc1)NC(=O)[C@]12CCN(C1)C(=O)OCCCC=CCCCC1(CCCC=CC[C@]3(CCCN3C(C)=O)C(=O)N[C@@H](CC(=O)O)C(=O)N[C@@H](CC(C)(C)C)C(=O)N1)C(=O)N[C@@H](CC(N)=O)C(=O)N[C@@H]([C@@H](C)O)C(=O)NC(C)(C)C(=O)N[C@@H](C)C(=O)N[C@@H](Cc1ccccc1)C(=O)N[C@@H](CC(N)=O)C(=O)N2)C(N)=O (stereo partly drawn) [I-2495, Ac-PL3-Asp-Npg-B5-Asn-Thr-Aib-Ala-Phe-Asn-PyrS2-3Thi-BztA-MeAsn-NH2] | 0.095 | > 20

The next lines start with the values.

Row | IC50 [1] [µM] | IC50 [2] [µM] | SMILES
8 | 0.036 | 4.2 | CC(=O)N1CCC[C@]12CC=CCCCC1(CCCC=CCCCOC(=O)N3CC[C@@](C(=O)N[C@@H](Cc4ccccc4C(F)(F)F)C(=O)N[C@@H](Cc4csc5c(Cl)cccc45)C(=O)N[C@@H](C)C(N)=O)(C3)NC(=O)[C@H](CC(C)C)NC(=O)[C@H](Cc3ccccc3)NC(=O)[C@H](C)NC(=O)[C@H](CCC(N)=O)NC(=O)[C@H](Cc3cccc(C(=O)O)c3)NC(=O)[C@H](CC(=O)O)NC1=O)NC(=O)[C@H](CC(C)(C)C)NC(=O)[C@H](CC(=O)O)NC2=O (stereo partly drawn) [I-2487, Ac-PL3-Asp-Npg-B5-Asp-3COOHF-Gln-Ala-Phe-Leu-PyrS2-2F3MeF-7C1BztA-Ala-NH2]
9 | 0.026 | 3.6 | CC(=O)N1CCC[C@]12CC=CCCCC1(CCCC=CCCCOC(=O)N3CC[C@@](C(=O)N[C@@H](Cc4ccccc4C(F)(F)F)C(=O)N[C@@H](Cc4csc5c(F)cccc45)C(=O)N[C@@H](CCC(N)=O)C(N)=O)(C3)NC(=O)[C@H](CC(C)C)NC(=O)[C@H](Cc3ccccc3)NC(=O)[C@H](C)NC(=O)[C@H](C)NC(=O)[C@H](Cc3cccc(C(=O)O)c3)NC(=O)[C@H](CC(=O)O)NC1=O)NC(=O)[C@H](CC(C)(C)C)NC(=O)[C@H](CC(=O)O)NC2=O (stereo partly drawn) [I-2488, Ac-PL3-Asp-Npg-B5-Asp-3COOHF-Ala-Ala-Phe-Leu-PyrS2-2F3MeF-7FBztA-Gln-NH2]
10 | 0.029 | 7.4 | CC(=O)N1CCC[C@]12CC=CCCCC1(CCCC=CCCCOC(=O)N3CC[C@@](C(=O)N[C@@H](Cc4ccccc4C(F)(F)F)C(=O)N[C@@H](Cc4csc5c(F)cccc45)C(=O)N[C@@H](C)C(N)=O)(C3)NC(=O)[C@H](CC(C)C)NC(=O)[C@H](Cc3ccccc3)NC(=O)[C@H](C)NC(=O)[C@H](CCC(N)=O)NC(=O)[C@H](Cc3cccc(C(=O)O)c3)NC(=O)[C@H](CC(=O)O)NC1=O)NC(=O)[C@H](CC(C)(C)C)NC(=O)[C@H](CC(=O)O)NC2=O (stereo partly drawn) [I-2489, Ac-PL3-Asp-Npg-B5-Asp-3COOHF-Gln-Ala-Phe-Leu-PyrS2-2F3MeF-7FBztA-Ala-NH2]
11 | 0.049 | 6.1 | CC(=O)N1CCC[C@]12CC=CCCCC1(CCCC=CCCCOC(=O)N3CC[C@@](C(=O)N[C@@H](Cc4ccccc4C(F)(F)F)C(=O)N[C@@H](Cc4csc5cccc(Cl)c45)C(=O)N[C@@H](C)C(N)=O)(C3)NC(=O)[C@H](CC(C)C)NC(=O)[C@H](Cc3ccccc3)NC(=O)[C@H](C)NC(=O)[C@H](CCC(N)=O)NC(=O)[C@H](Cc3cccc(C(=O)O)c3)NC(=O)[C@H](CC(=O)O)NC1=O)NC(=O)[C@H](CC(C)(C)C)NC(=O)[C@H](CC(=O)O)NC2=O (stereo partly drawn) [I-2491, Ac-PL3-Asp-Npg-B5-Asp-3COOHF-Gln-Ala-Phe-Leu-PyrS2-2F3MeF-4C1BztA-Ala-NH2]

Reference: patent US20240116985A1, “STAPLED PEPTIDES AND METHODS THEREOF” (priority 2020, published 2024)
